Data reported in patent publication US20260272878A1, “ADAR1 INHIBITORS AND USES THEREOF” (THE WISTAR INSTITUTE OF ANATOMY AND BIOLOGY, priority 2023, published 2026).
Entries after “also recorded” stand apart in the source; their conditions may differ.

How the values were obtained:
ADAR2 = target: T1, ADAR2 (Homo sapiens, UniProt P78563); assay: In vitro editing assay, ADAR2; assay type: biochemical; settings: ADAR2 mediated A-to-I editing in vitro
T1 sequence (P78563 1-741): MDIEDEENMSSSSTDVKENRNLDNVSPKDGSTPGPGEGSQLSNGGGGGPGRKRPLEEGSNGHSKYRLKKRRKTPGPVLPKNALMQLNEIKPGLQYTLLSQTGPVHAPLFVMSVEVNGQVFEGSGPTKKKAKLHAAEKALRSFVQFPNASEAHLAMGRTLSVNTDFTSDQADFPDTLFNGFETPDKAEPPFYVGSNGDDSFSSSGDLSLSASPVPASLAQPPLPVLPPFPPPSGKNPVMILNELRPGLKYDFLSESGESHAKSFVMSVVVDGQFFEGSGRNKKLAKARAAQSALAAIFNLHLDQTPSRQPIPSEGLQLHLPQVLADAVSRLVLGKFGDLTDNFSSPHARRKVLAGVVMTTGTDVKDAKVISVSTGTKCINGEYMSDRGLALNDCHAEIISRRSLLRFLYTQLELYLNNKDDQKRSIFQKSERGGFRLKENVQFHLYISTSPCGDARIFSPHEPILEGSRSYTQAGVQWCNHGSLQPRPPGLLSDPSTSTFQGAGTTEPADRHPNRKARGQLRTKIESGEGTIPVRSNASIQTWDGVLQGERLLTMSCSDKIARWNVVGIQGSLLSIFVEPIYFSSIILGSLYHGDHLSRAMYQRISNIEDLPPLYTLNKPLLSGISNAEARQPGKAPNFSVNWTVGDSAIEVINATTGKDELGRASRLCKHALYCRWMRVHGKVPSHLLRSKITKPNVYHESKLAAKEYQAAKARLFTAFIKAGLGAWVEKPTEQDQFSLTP

ADAR1p110 = target: T2, ADAR1p110 (Homo sapiens, UniProt P55265); assay: In vitro editing assay with recombinant ADAR1p110 and synthetic dsRNA; assay type: biochemical; settings: for IC50: ADAR1p110, dose-dependent in vitro editing assay; for Inhibition of ADAR1p110 editing: in vitro editing assay, result in words
T2 construct: HAT (N); made in house; host or cells: Sf9 cells (baculovirus)
T2 sequence (P55265 1-931 isoform P55265-5): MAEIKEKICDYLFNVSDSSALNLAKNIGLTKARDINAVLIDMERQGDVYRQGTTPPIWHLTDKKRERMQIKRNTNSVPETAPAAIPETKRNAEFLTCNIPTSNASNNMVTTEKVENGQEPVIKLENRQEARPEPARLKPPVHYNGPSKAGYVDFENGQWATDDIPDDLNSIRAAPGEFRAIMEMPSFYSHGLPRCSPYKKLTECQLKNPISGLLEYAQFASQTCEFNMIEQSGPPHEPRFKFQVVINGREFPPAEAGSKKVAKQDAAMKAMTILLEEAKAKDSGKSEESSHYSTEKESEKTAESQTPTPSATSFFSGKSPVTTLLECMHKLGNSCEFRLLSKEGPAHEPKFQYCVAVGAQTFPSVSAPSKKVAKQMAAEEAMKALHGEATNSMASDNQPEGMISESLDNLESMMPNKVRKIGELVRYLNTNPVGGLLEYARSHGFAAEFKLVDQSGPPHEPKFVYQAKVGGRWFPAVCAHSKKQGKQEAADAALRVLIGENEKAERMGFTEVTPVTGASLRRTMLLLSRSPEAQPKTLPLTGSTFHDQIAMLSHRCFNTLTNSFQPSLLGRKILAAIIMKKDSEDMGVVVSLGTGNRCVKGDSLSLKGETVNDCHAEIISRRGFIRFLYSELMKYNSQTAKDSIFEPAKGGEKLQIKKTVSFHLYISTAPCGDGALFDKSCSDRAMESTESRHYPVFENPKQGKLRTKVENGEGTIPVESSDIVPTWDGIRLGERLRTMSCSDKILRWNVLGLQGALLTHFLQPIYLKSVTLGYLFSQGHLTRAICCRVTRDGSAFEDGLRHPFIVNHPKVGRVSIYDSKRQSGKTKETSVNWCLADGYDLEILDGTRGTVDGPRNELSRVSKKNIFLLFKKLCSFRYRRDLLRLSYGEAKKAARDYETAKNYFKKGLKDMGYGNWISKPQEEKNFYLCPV
Protocol: In vitro editing assay using purified HAT-ADAR1p110 and a synthetic dsRNA was conducted at varying concentrations of ADAR1i-124. The editing efficiency was determined by the guanosine peak replacing the adenosine peak of cDNA sequencing chromatograms.
The in vitro editing reaction mixture, containing 5 nM of telomere RNA:RNA duplex substrates and 75 nM of HAT-ADAR1p110-WT, FLAG-ADAR1p110-WT, or HA-ADAR1p110-EAA protein, was incubated at 37° C. for 2 h in in vitro editing buffer I (20 mM HEPES-KOH PH 7.5, 100 mM NaCl, 0.01% NP-40, 5% glycerol, 1 mM DTT). For editing of RNA:DNA hybrid substrates, in vitro editing buffer II (20 mM HEPES-KOH PH 7.5, 20 mM NaCl, 0.01% NP-40, 5% glycerol, 1 mM DTT) was used. Edited RNA or DNA strands were purified using Dynabeads MyOne Streptavidin C1 (Thermo Fisher Scientific). To remove opposite RNA or DNA strands, rNase H (NEB) or TURBO dNase (Thermo Fisher Scientific) was used, respectively. For sequencing of edited substrates, reverse transcription-PCR was carried out for RNA strands, while PCR was carried out for DNA strands. RT reactions were carried out using SuperScript III Reverse Transcriptase (Thermo Fisher Scientific), and PCR reactions were performed using Platinum Taq DNA polymerase (Thermo Fisher Scientific). PCR products were sequenced using a specific sequencing primer, and the ratio of A and G peaks in the chromatograms were analyzed by CodonCode Aligner (CodonCode Corporation).
In a previous study, the 54 compounds identified in the high-throughput screen were further tested in the in vitro editing assay described in Examples 2 and 3. The in vitro editing reaction mixture, containing 5 nM of telomere RNA:RNA duplex substrates and 75 nM of HAT-ADAR1p110-WT, FLAG-ADAR1p110-WT, or HA-ADAR1p110-EAA protein, was incubated at 37° C. for 2 h in in vitro editing buffer I (20 mM HEPES-KOH PH 7.5, 100 mM NaCl, 0.01% NP-40, 5% glycerol, 1 mM DTT) with 10 microM test compound. For editing of RNA:DNA hybrid substrates, in vitro editing buffer II (20 mM HEPES-KOH PH 7.5, 20 mM NaCl, 0.01% NP-40, 5% glycerol, 1 mM DTT) was used. Edited RNA or DNA strands were purified using Dynabeads MyOne Streptavidin C1 (Thermo Fisher Scientific). To remove opposite RNA or DNA strands, Rnase H (NEB) or TuRBO Dnase (Thermo Fisher Scientific) was used, respectively. For sequencing of edited substrates, reverse transcription-PCR was carried out for RNA strands, while PCR was carried out for DNA strands. RT reactions were carried out using SuperScript III
Reverse Transcriptase (Thermo Fisher Scientific), and PCR reactions were performed using Platinum Taq DNA polymerase (Thermo Fisher Scientific). PCR products were sequenced using a specific sequencing primer, and the ratio of A and G peaks in the chromatograms were analyzed by CodonCode Aligner (CodonCode Corporation).

IC50 (ADAR1p110) | SMILES | ADAR2 inhibitory activity (ADAR2) | Inhibition of ADAR1p110 editing (ADAR1p110) | Substrate preference of editing inhibition (matched vs A-C mismatched dsRNA) (ADAR1p110; recombinant ADAR1p110, matched and mismatched dsRNA substrates, 10 microM test compound)
10 to 20 µM | N#Cc1ccc(NC(=O)c2sc3ccccc3c2Cl)cc1 [ADAR1i-13, 3-chloro-N-(4-cyanophenyl)-1-benzothiophene-2-carboxamide] | No ADAR2 inhibitory activity was detected; also recorded: did not inhibit ADAR2 mediated A-to-I editing in vitro | inhibited ADAR1p110 editing of all three substrates tested, including the DNA:RNA hybrid substrate | preferentially inhibited matched adenosines
10 to 20 µM | N#Cc1ccccc1NC(=O)c1sc2ccccc2c1Cl [ADAR1i-120] | No ADAR2 inhibitory activity was detected | ADAR1 inhibitory activities | –

SMILES | IC50 (ADAR1p110) | ADAR2 inhibitory activity (ADAR2) | Inhibition of ADAR1p110 editing (ADAR1p110) | Substrate preference of editing inhibition (matched vs A-C mismatched dsRNA) (ADAR1p110; recombinant ADAR1p110, matched and mismatched dsRNA substrates, 10 microM test compound)
N#Cc1ccc(NC(=O)c2c(Cl)c3ccccc3n2CO)cc1 [ADAR1i-124] | 10 to 20 µM | No ADAR2 inhibitory activity was detected; also recorded: did not inhibit ADAR2 mediated A-to-I editing in vitro; also recorded: No ADAR2 inhibition detected | ADAR1 inhibitory activities; also recorded: inhibited both ADAR1p150 and ADAR1p-110 | –
